Assay results from patent US20250074920A1, “MACROCYCLIC COMPOUNDS AND USE AS KINASE INHIBITORS” (BLOSSOMHILL THERAPEUTICS, INC., priority 2022, published 2025).

How the values were obtained:
Test in all cases: KINOMEscan kinase binding assay
Conditions in all cases: at 1 μM
[1] = system: EGFR(T790M)
Method in brief: (§1)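 Dissociation constants came from the amount of kinase captured on the solid support across a test compound concentration series. Captured kinase, T7 phage-fused or HEK-293-made and DNA-tagged, was read by qPCR after a 1 h room-temperature binding step.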

[2] = system: AXL
Method in brief: as §1

[3] = system: ABL1(F317L)-nonphosphorylated
Method in brief: as §1

[4] = system: ABL1-phosphorylated
Method in brief: as §1

[5] = system: ERBB2
Method in brief: as §1

[6] = system: FLT3-autoinhibited
Method in brief: as §1

[7] = system: VEGFR2
Method in brief: as §1

[8] = system: EPHB4
Method in brief: as §1

[9] = system: EPHA6
Method in brief: (§2)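 qPCR read-out of kinase retained on ligand-coated streptavidin beads. Binding buffer: 20% SeaBlock, 0.17×PBS, 0.05% Tween 20, 6 mM DTT; 1 h RT with shaking. % Ctrl = (test − positive control)/(negative control − positive control)×100; lower values mean stronger binding.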

[10] = system: ABL1(T315I)-phosphorylated
Method in brief: as §1

[11] = system: EPHB6
Method in brief: as §1

[12] = system: FLT3(K663Q)
Method in brief: as §1

[13] = system: ABL1(Q252H)-phosphorylated
Method in brief: as §1

[14] = system: TRKA
Method in brief: as §1

[15] = system: EPHA2
Method in brief: as §2

[16] = system: LCK
Method in brief: as §1

[17] = system: RET(V804M)
Method in brief: as §1

[18] = system: RET(V804L)
Method in brief: as §1

[19] = system: MET(M1250T)
Method in brief: as §1

[20] = system: ITK
Method in brief: as §1

[21] = system: EPHA3
Method in brief: as §2

[22] = system: DDR1
Method in brief: as §1

[23] = system: ALK(C1156Y)
Method in brief: as §1

[24] = system: EGFR(E746-A750del)
Method in brief: as §1

[25] = system: FLT3(D835V)
Method in brief: as §1

[26] = system: MST1R
Method in brief: as §1

[27] = system: FAK
Method in brief: as §1

[28] = system: INSR
Method in brief: as §1

[29] = system: FRK
Method in brief: as §1

[30] = system: KIT-autoinhibited
Method in brief: as §1

[31] = system: EPHA8
Method in brief: as §1

[32] = system: TRKB
Method in brief: as §1

[33] = system: PDGFRA
Method in brief: as §1

[34] = system: EGFR(L858R)
Method in brief: as §2

[35] = system: BLK
Method in brief: as §1

[36] = system: FLT3
Method in brief: as §1

[37] = system: KIT(V559D, V654A)
Method in brief: as §1

[38] = system: EPHA1
Method in brief: as §2

[39] = system: ABL1(F317L)-phosphorylated
Method in brief: as §1

[40] = system: EGFR(L747-E749del, A750P)
Method in brief: as §1

[41] = system: EPHB1
Method in brief: as §1

Cc1cc2c([nH]1)/C=C1\C(=O)Nc3c(Cl)cc(cc31)-c1cn(C)nc1COC[C@@H](C)NC2=O [Cpd. 3, [3a(4)Z,10R]-20-chloro-6,10,15-trimethyl-10,11,13,15-tetrahydro-2H-1,17-(ethanediylidene)pyrazolo[4,3-m]dipyrrolo[3,2-f:3′,4′-i][1,4]oxazacyclopentadecine-3,8(5H,9H)-dione]
% Ctrl [1]: 87% | % Ctrl [2]: 86% | % Ctrl [3]: 95% | % Ctrl [4]: 96% | % Ctrl [5]: 100% | % Ctrl [6]: 93% | % Ctrl [7]: 92% | % Ctrl [8]: 97% | % Ctrl [9]: 93% | % Ctrl [10]: 69% | % Ctrl [11]: 86% | % Ctrl [12]: 100% | % Ctrl [13]: 100% | % Ctrl [14]: 61% | % Ctrl [15]: 93% | % Ctrl [16]: 87% | % Ctrl [17]: 100% | % Ctrl [18]: 98% | % Ctrl [19]: 100% | % Ctrl [20]: 100% | % Ctrl [21]: 75% | % Ctrl [22]: 98% | % Ctrl [23]: 89% | % Ctrl [24]: 98% | % Ctrl [25]: 100% | % Ctrl [26]: 98% | % Ctrl [27]: 100% | % Ctrl [28]: 78% | % Ctrl [29]: 97% | % Ctrl [30]: 87% | % Ctrl [31]: 90% | % Ctrl [32]: 100% | % Ctrl [33]: 92% | % Ctrl [34]: 96% | % Ctrl [35]: 92% | % Ctrl [36]: 57% | % Ctrl [37]: 100% | % Ctrl [38]: 85% | % Ctrl [39]: 93% | % Ctrl [40]: 90% | % Ctrl [41]: 100%

C[C@@H]1COCc2nn(C)cc2-c2cc(Cl)c3c(c2)/C(=C/c2[nH]ccc2C(=O)N1)C(=O)N3 [Cpd. 4, [3a(4)Z,10R]-20-chloro-10,15-dimethyl-10,11,13,15-tetrahydro-2H-1,17-(ethanediylidene)pyrazolo[4,3-m]dipyrrolo[3,2-f:3′,4′-i][1,4]oxazacyclopentadecine-3,8(5H,9H)-dione]
% Ctrl [1]: 90% | % Ctrl [2]: 67% | % Ctrl [3]: 96% | % Ctrl [4]: 90% | % Ctrl [5]: 100% | % Ctrl [6]: 93% | % Ctrl [7]: 94% | % Ctrl [8]: 98% | % Ctrl [9]: 97% | % Ctrl [10]: 35% | % Ctrl [11]: 86% | % Ctrl [12]: 90% | % Ctrl [13]: 89% | % Ctrl [14]: 59% | % Ctrl [15]: 96% | % Ctrl [16]: 88% | % Ctrl [17]: 90% | % Ctrl [18]: 95% | % Ctrl [19]: 100% | % Ctrl [20]: 99% | % Ctrl [21]: 83% | % Ctrl [22]: 20% | % Ctrl [23]: 100% | % Ctrl [24]: 96% | % Ctrl [25]: 75% | % Ctrl [26]: 100% | % Ctrl [27]: 96% | % Ctrl [28]: 81% | % Ctrl [29]: 78% | % Ctrl [30]: 82% | % Ctrl [31]: 82% | % Ctrl [32]: 100% | % Ctrl [33]: 96% | % Ctrl [34]: 95% | % Ctrl [35]: 100% | % Ctrl [36]: 100% | % Ctrl [37]: 99% | % Ctrl [38]: 71% | % Ctrl [39]: 90% | % Ctrl [40]: 75% | % Ctrl [41]: 97%
